# Assay results as given in US7169809B2, “Nitric oxide releasing prodrugs of diaryl-2-(5H)-furanones as cyclooxygenase-2 inhibitors” (Merck Frosst Company, priority 2003, dated 2007).
# How the values were obtained:
# [1] = biological target: T1, COX-1 (Homo sapiens, UniProt P23219); assay: Human whole blood cyclooxygenase assay, COX-1 (clotting-induced TXB2 production); format: cell-based; conditions: clotting 1 h, n=3, read-out: IC50 for inhibition of clotting-induced TXB2 level
# T1 construct: Fresh blood from male or female volunteers is collected into vacutainers containing no anticoagulants; from tissue; host or cells: fresh human whole blood without anticoagulant, from male or female volunteers, allowed to clot for 1 h at 37 °C
# Method: (§1) Whole blood provides a protein and cell-rich milieu for the study of biochemical efficacy of anti-inflammatory compounds such as COX-2 inhibitors and NSAIDs. To study the inhibitory activities of these compounds on the two isoforms of cyclooxygenase (COX-1 and COX-2), human blood is either stimulated with lipopolysaccharide (LPS) for 24 hours to induce COX-2 or the blood is allowed to clot spontaneously to activate COX-1. The production of prostaglandin E2 (PGE2) and thromboxane B2 (TXB2) are measured by immunoassay at the end of the incubation as readouts of COX-2 and COX-1 activity, respectively.
# (§2) Human whole blood assays for COX-1 and COX-2 activity, previously reported (Brideau et al, 1996) are performed as described below.
# Fresh blood from male or female volunteers is collected into vacutainers containing no anticoagulants. These subjects have no apparent inflammatory conditions and have not taken any NSAIDs for at least 7 days prior to blood collection. Aliquots of 500 μL are immediately transferred to polypropylene tubes preloaded with 2 μL of DMSO or 2 μL of test compounds. The tubes are vortexed and incubated at 37° C. for 1 h to allow the blood to clot. At the end of the incubation, serum is obtained by centrifugation (3,000 rpm for 10 min at […]). […]
# [2] = biological target: T2, COX-2 (Homo sapiens, UniProt P35354); assay: Human whole blood cyclooxygenase assay, COX-2 (LPS-induced PGE2 production); format: cell-based
# T2 construct: Fresh blood is collected in heparinized tubes by venipuncture from healthy male volunteers; from tissue; host or cells: fresh heparinized human whole blood from healthy male volunteers, LPS-stimulated for 24 h
# T2 sequence (P35354 18-604): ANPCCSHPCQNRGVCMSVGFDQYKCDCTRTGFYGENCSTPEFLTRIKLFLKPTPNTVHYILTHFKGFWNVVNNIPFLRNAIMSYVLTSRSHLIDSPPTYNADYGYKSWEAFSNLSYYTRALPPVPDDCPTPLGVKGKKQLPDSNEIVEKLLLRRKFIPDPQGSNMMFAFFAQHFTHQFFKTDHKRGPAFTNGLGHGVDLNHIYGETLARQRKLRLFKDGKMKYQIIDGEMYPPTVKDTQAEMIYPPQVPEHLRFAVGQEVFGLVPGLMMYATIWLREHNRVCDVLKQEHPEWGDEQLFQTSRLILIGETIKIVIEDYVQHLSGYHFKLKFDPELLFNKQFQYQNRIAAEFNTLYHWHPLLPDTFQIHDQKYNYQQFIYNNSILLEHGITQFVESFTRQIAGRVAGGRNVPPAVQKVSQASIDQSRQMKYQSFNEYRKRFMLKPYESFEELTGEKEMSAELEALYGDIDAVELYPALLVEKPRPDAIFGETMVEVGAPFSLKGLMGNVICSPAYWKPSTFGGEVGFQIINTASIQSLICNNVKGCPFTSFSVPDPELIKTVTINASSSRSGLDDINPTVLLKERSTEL
# Method: as §1, §2
# Fresh blood is collected in heparinized tubes by venipuncture from healthy male volunteers. These subjects have no apparent inflammatory conditions and have not taken any NSAIDs for at least 7 days prior to blood collection. The blood is initially pre-incubated with bacterial lipopolysaccharide (LPS) at 100 μg/ml (Sigma Chem, #L-2630 from E. coli, serotype 0111:B4; diluted in 0.1% w/v bovine serine albumin in phosphate buffered saline). Five minutes later, 500 μL aliquots of the LPS-treated blood aree incubated with 2 μL vehicle (DMSO) or 2 μL of test compounds in DMSO for 24 hr at 37° C. (for induction of COX-2). […]
# [3] = tested on: carrageenan-induced rat paw edema; assay: Carrageenan-induced rat paw edema assay; format: in vivo; conditions: oral, 1 hr pretreatment, Sprague-Dawley rats, paw volume at 3 h, read-out: inhibition of carrageenan-induced edema response
# Method: The carrageenan-induced rat paw edema assay is an established assay for evaluating the efficacy of conventional, non-selective NSAIDs in acute inflammation (Winter and Flataker, 1965; Mukherjee et al., 1996; Vinegar et al., 1987).
# Male Sprague-Dawley rats (200–250 g) are fasted for 16–18 h prior to oral administration of either the vehicle (0.5% methocel) or test compound. One hour later, a line was drawn using a permanent marker at a level above the ankle in one hind paw to define the area of the paw to be monitored. The paw volume (V0) is measured using a plethysmometer (Ugo-Basile, Italy) based on the Archimedes principle of water displacement. The rats are then injected subplantarly with 0.05 mL of a 1% carrageenan (Sigma Chem.) solution in saline using a syringe with a 27-gauge needle (i.e. 500 μg carrageenan per paw). Three hours later, the paw volume (V3) is measured again and the increases in paw volume (V3−V0) is calculated. Paw edema is compared with the vehicle-control group and the percent inhibition calculated taking the values in the control group as 0%.
# [4] = tested on: gastric erosions; assay: Gastric erosion model in rats (co-dosed with aspirin); format: in vivo, rat; conditions: Wistar rats, compared to rofecoxib dosed with aspirin, 3 hr
# Method: The gastric protective effects of the combination of the present invention co-administered with aspirin may be evaluated in the following assay.
# Male Wistar rats (200–250 g) were fasted for 16–18 h prior to use for experiment. Aspririn, rofecoxib in combination with aspirin (dosed separately), or test compound in combination with aspirin (dosed separately) were given on the morning of the experiment at a dosing volume of 1 ml/kg in 0.5% methocel. Three hr later, the animals were euthanized by CO2 inhalation and the stomach removed, rinsed in saline and prepared for imaging processing. Microscopic pictures of the stomach were taken using a digital camera and gastric erosions were measured using an imaging software by an observer unaware of the treatment groups. The length of gastric erosions was measured in mm and the total length of all erosions from each stomach was obtained and used as gastric damage score.
# This model is also described in S. Fiorucci, et al., Gastroenterology, vol. 123, pp. 1598–1606, 2002 and M. Souza, et al., Am. J. Physiol. Gastrointest. Liver Physiol., vol. 285, pp. G54–G61, 2003.
# T1 sequence (P23219 24-599): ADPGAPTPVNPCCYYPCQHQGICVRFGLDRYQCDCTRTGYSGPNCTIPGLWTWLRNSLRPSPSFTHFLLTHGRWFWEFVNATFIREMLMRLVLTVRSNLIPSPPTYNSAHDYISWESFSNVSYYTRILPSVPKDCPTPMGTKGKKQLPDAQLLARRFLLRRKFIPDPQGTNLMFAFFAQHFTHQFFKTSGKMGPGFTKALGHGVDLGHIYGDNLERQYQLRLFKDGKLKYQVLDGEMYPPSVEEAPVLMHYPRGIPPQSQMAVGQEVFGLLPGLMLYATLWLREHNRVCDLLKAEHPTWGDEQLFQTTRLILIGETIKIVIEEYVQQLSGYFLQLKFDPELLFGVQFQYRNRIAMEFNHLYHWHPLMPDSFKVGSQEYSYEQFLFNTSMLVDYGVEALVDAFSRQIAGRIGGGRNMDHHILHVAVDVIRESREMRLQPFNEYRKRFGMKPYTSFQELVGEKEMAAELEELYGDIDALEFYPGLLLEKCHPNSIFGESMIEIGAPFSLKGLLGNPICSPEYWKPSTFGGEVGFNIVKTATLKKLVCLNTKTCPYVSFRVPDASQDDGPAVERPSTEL
structure (smiles),measurement,setting,value
"CC(=O)OC/C(=C(\C(=O)OCCCCCCO[N+](=O)[O-])c1ccccc1)c1ccc(S(C)(=O)=O)cc1 [Example 1, 6-(nitrooxy)hexyl (2Z)-4-(acetyloxy)-3-[4-(methylsulfonyl)phenyl]-2-phenylbut-2-enoate]",IC50,[1],7.8 ± 2.6 µM
same,IC50,"[2]; LPS-stimulated human whole blood, 24 hr, n=6, read-out: IC50 for the inhibition of PGE2 production in a human whole blood assay",0.22 ± 0.04 µM
same,COX1/COX2 selectivity,"[2]; in vitro human peripheral blood assay, ratio of COX-1 to COX-2 IC50",35 fold
same,inhibition at 1 mg/kg,[3],49%
same,gastric protection (gastric damage score),[4],significant gastric protection
